# Assay results reported in US20250352658A1, “COMBINATION THERAPY USING ANTIBODY-DRUG CONJUGATES” (ADC THERAPEUTICS SA, priority 2021, published 2025).
# Square brackets hold non-standard residues; d marks the D form. Peptide text beside a SMILES is read from it. * marks the point of attachment. Dolaproine = CO[C@@H]([C@@H]1CCCN1)[C@@H](C)C(=O)O; Dil = CC[C@H](C)[C@H](NC)[C@@H](CC(=O)O)OC; X1 = C[C@@H](N*)[C@@H](O)c1ccccc1; NMeV = CN[C@H](C(=O)O)C(C)C
# System: TMD8 cells
# Assay: CellTiterGlo viability assay, SG3199 and MMAE combination, TMD8
# Type: cell-based
# Settings: 24 hours
# Method: We tested a combination of the warheads alone used in CD19xADC (PBD SG3199) and CD79bxADC (monomethyl auristatin E (MMAE)). This was performed essentially as per Example 1, in TMD8 cells. Cells were seeded at a density of 50,000 cells/mL. […]
# Cells were incubated for 24 hours and then viability was measured with CellTiterGlo assay.
# For analysis of the results, data were first blank corrected (average of blank of the 3 replicates was subtracted from each data value). For GraphPad analysis, each replicate was normalized over the untreated cells (average of the 3 replicates). Data were analysed by GraphPad Prism to generate a dose response curve with Log drug concentration on X-axis and cell viability (%) on Y-axis. For CalcuSyn analysis, the average of the 3 replicates was corrected over the untreated cells.
Structure (SMILES),Fa (fraction affected) (MMAE 0.08 ng/ml alone (SG3199 0)),Fa (fraction affected) (MMAE 0.2 ng/ml alone (SG3199 0)),Fa (fraction affected) (MMAE 0.6 ng/ml alone (SG3199 0)),Fa (fraction affected) (MMAE 1.9 ng/ml alone (SG3199 0)),Fa (fraction affected) (MMAE 5.6 ng/ml alone (SG3199 0)),Fa (fraction affected) (SG3199 0.06 pM alone (MMAE 0)),Fa (fraction affected) (SG3199 0.23 pM alone (MMAE 0)),Fa (fraction affected) (SG3199 0.90 pM alone (MMAE 0)),Fa (fraction affected) (SG3199 3.6 pM alone (MMAE 0)),Fa (fraction affected) (SG3199 14.4 pM alone (MMAE 0)),Fa (fraction affected) (SG3199 57.5 pM alone (MMAE 0)),Fa (fraction affected) (SG3199 230 pM alone (MMAE 0))
"CC[C@H](C)[C@@H]([C@@H](CC(=O)N1CCC[C@H]1[C@H](OC)[C@@H](C)C(=O)N[C@H](C)[C@@H](O)c1ccccc1)OC)N(C)C(=O)[C@@H](NC(=O)[C@@H](NC)C(C)C)C(C)C [MMAE, monomethyl auristatin E, reference compound] (H-[NMeV]V[Dil][Dolaproine]-X1)",0.11,0.17,0.27,0.29,0.38,–,–,–,–,–,–,–
"COc1cc2c(cc1OCCCCCOc1cc3c(cc1OC)C(=O)N1C=C(C)C[C@H]1C=N3)N=C[C@@H]1CC(C)=CN1C2=O [SG3199, reference compound]",–,–,–,–,–,0.12,0.16,0.15,0.15,0.19,0.23,0.46
